Source: PubChem BioAssay AID2060899 (Molecular Pharmacology Branch, DTP, NCI, 2025)
One block for each molecule: values may come before it.

Tested on: 565726-208-R1-J5-PDC complex spheroids, growth inhibition
Experiment: Anticancer human tumor 565726-208-R1-J5-PDC patient-derived pancreatic adenocarcinoma cell line growth inhibition [RAS]
Details: for IC50: curve of first compound; for viability, T/C: stronger effect = lower value
How it was run: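 Multi-cell-type spheroids: tumor cells plus HUVEC endothelial cells and mesenchymal stem cells. RAS-pathway inhibitors were combined with targeted agents, each dosed in half-log steps down from clinical Cmax, or from 10 microM when Cmax was unknown.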

[1] = second compound 0.000949 µM, first compound 0.0316 µM
[2] = second compound 0.000949 µM, first compound 0.1 µM
[3] = second compound 0.000949 µM, first compound 0.316 µM
[4] = second compound 0.000949 µM, first compound 1 µM
[5] = second compound 0.000949 µM, first compound 3.16 µM
[6] = second compound 0.000949 µM, first compound 10 µM
[7] = second compound 0.003 µM, first compound 0.0316 µM
[8] = second compound 0.003 µM, first compound 0.1 µM
[9] = second compound 0.003 µM, first compound 0.316 µM
[10] = second compound 0.003 µM, first compound 1 µM
[11] = second compound 0.003 µM, first compound 3.16 µM
[12] = second compound 0.003 µM, first compound 10 µM
[13] = second compound 0.00949 µM, first compound 0.0316 µM
[14] = second compound 0.00949 µM, first compound 0.1 µM
[15] = second compound 0.00949 µM, first compound 0.316 µM
[16] = second compound 0.00949 µM, first compound 1 µM
[17] = second compound 0.00949 µM, first compound 3.16 µM
[18] = second compound 0.00949 µM, first compound 10 µM
[19] = second compound 0.03 µM, first compound 0.0316 µM
[20] = second compound 0.03 µM, first compound 0.1 µM
[21] = second compound 0.03 µM, first compound 0.316 µM
[22] = second compound 0.03 µM, first compound 1 µM
[23] = second compound 0.03 µM, first compound 3.16 µM
[24] = second compound 0.03 µM, first compound 10 µM
[25] = second compound 0.0949 µM, first compound 0.0316 µM
[26] = second compound 0.0949 µM, first compound 0.1 µM
[27] = second compound 0.0949 µM, first compound 0.316 µM
[28] = second compound 0.0949 µM, first compound 1 µM
[29] = second compound 0.0949 µM, first compound 3.16 µM
[30] = second compound 0.0949 µM, first compound 10 µM
[31] = second compound 0.3 µM, first compound 0.0316 µM
[32] = second compound 0.3 µM, first compound 0.1 µM
[33] = second compound 0.3 µM, first compound 0.316 µM
[34] = second compound 0.3 µM, first compound 1 µM
[35] = second compound 0.3 µM, first compound 3.16 µM
[36] = second compound 0.3 µM, first compound 10 µM
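Further: spheroids exposed to compounds for seven days before readout.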
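Wherever viability, T/C is given: 100% = DMSO vehicle control viability.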

- IC50 (second compound 0.000949 µM): 1430 nM
- IC50 (second compound 0.003 µM): 1490 nM
- IC50 (second compound 0.00949 µM): 1480 nM
- IC50 (second compound 0.03 µM): 1380 nM
- IC50 (second compound 0.0949 µM): 1340 nM
- IC50 (second compound 0.3 µM): 1040 nM
Compound: CCC(CC)c1cc(NC2CCC(N)C2)n2nccc2n1 (centres undefined) + CCn1c(-c2cccnc2C(C)OC)c2c3cc(ccc31)N1CCOC(CC(NC(=O)C(C(C)C)N(C)C(=O)C3(F)CCN(C(=O)C#CC(C)(C)N(C)C)CC3)C(=O)N3CCCC(N3)C(=O)OCC(C)(C)C2)C1
- viability, T/C [1]: 106%
- viability, T/C [2]: 103%
- viability, T/C [3]: 101%
- viability, T/C [4]: 72%
- viability, T/C [5]: 0.76%
- viability, T/C [6]: 0.94%
- viability, T/C [7]: 104%
- viability, T/C [8]: 104%
- viability, T/C [9]: 115%
- viability, T/C [10]: 76.4%
- viability, T/C [11]: 0.77%
- viability, T/C [12]: 0.9%
- viability, T/C [13]: 112%
- viability, T/C [14]: 105%
- viability, T/C [15]: 101%
- viability, T/C [16]: 74.9%
- viability, T/C [17]: 0.96%
- viability, T/C [18]: 0.75%
- viability, T/C [19]: 108%
- viability, T/C [20]: 109%
- viability, T/C [21]: 115%
- viability, T/C [22]: 68.9%
- viability, T/C [23]: 0.82%
- viability, T/C [24]: 1.41%
- viability, T/C [25]: 92.9%
- viability, T/C [26]: 109%
- viability, T/C [27]: 94.7%
- viability, T/C [28]: 66.9%
- viability, T/C [29]: 0.68%
- viability, T/C [30]: 0.5%
- viability, T/C [31]: 78.5%
- viability, T/C [32]: 88.7%
- viability, T/C [33]: 96.4%
- viability, T/C [34]: 51.9%
- viability, T/C [35]: 0.87%
- viability, T/C [36]: 1.78%

- IC50 (second compound 0.000949 µM): > 10000 nM
- IC50 (second compound 0.003 µM): > 10000 nM
- IC50 (second compound 0.00949 µM): > 10000 nM
- IC50 (second compound 0.03 µM): > 10000 nM
- IC50 (second compound 0.0949 µM): > 10000 nM
- IC50 (second compound 0.3 µM): > 10000 nM
Compound: Cc1nc(N2CCC3(CC2)COC(C)C3N)c(CO)nc1Sc1ccnc(N)c1Cl (centres undefined) + CCn1c(-c2cccnc2C(C)OC)c2c3cc(ccc31)N1CCOC(CC(NC(=O)C(C(C)C)N(C)C(=O)C3(F)CCN(C(=O)C#CC(C)(C)N(C)C)CC3)C(=O)N3CCCC(N3)C(=O)OCC(C)(C)C2)C1
- viability, T/C [1]: 95.1%
- viability, T/C [2]: 92.8%
- viability, T/C [3]: 84.9%
- viability, T/C [4]: 73.7%
- viability, T/C [5]: 80%
- viability, T/C [6]: 66.5%
- viability, T/C [7]: 104%
- viability, T/C [8]: 97%
- viability, T/C [9]: 86.6%
- viability, T/C [10]: 77%
- viability, T/C [11]: 71%
- viability, T/C [12]: 70.6%
- viability, T/C [13]: 83.4%
- viability, T/C [14]: 97.3%
- viability, T/C [15]: 86.3%
- viability, T/C [16]: 76.5%
- viability, T/C [17]: 79.7%
- viability, T/C [18]: 71.6%
- viability, T/C [19]: 95.5%
- viability, T/C [20]: 87.3%
- viability, T/C [21]: 92.8%
- viability, T/C [22]: 89.3%
- viability, T/C [23]: 81.5%
- viability, T/C [24]: 69.6%
- viability, T/C [25]: 81%
- viability, T/C [26]: 98.2%
- viability, T/C [27]: 85.1%
- viability, T/C [28]: 69.8%
- viability, T/C [29]: 77.4%
- viability, T/C [30]: 78.8%
- viability, T/C [31]: 91.2%
- viability, T/C [32]: 79.8%
- viability, T/C [33]: 79.4%
- viability, T/C [34]: 69.8%
- viability, T/C [35]: 70.2%
- viability, T/C [36]: 59.2%
